Experimental data published in PMC9814568, “Peptide transporter structure reveals binding and action mechanism of a potent PEPT1 and PEPT2 inhibitor” (Communications Chemistry, 2022).

Key:
YePEPT [1] = biological target: T1, YePEPT (Yersinia enterocolitica, UniProt A0A2R9TD79, K314A); test: co-crystal structure at […] Å; also thermal shift; IC50 from [3H]Ala-Ala uptake in E. coli cells; format: cell-based
T1 construct: gene YEP4_02370; YePEPT-K314A, C-terminal HRV3C site and His10 tag (cleaved for crystallisation)
T1 sequence (A0A2R9TD79 1-511 K314A): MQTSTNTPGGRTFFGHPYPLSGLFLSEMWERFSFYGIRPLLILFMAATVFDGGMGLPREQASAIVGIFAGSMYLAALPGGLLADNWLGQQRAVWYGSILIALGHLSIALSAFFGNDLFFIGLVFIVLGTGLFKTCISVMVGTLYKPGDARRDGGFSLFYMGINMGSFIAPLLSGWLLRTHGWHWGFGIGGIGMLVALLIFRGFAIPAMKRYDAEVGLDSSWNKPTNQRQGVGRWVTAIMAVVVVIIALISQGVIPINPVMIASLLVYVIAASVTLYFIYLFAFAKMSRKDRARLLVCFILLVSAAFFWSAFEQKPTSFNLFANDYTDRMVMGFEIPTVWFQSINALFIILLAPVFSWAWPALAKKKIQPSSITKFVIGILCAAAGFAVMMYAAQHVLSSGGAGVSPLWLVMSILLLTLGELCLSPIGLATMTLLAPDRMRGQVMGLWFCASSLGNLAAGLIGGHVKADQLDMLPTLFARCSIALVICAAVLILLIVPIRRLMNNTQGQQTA

YePEPT [2] = biological target: T2, YePEPT (Yersinia enterocolitica, UniProt A0A2R9TD79, K314A/S412A); test: label-free DSF thermal shift at […] LZNV (no Kd); format: binding
T2 construct: gene YEP4_02370; YePEPT^K314A-S412A, detergent-purified, His-tagged

YePEPT [3] = biological target: T3, YePEPT (Yersinia enterocolitica, UniProt A0A2R9TD79, K314Q/P315G); test: label-free DSF thermal shift at […] LZNV (no Kd); format: binding
T3 construct: gene YEP4_02370; YePEPT^K314Q-P315G, detergent-purified, His-tagged

[4] = test system: C[C@H](N)C(=O)N[C@@H](C)C(=O)O; test: [3H]Ala-Ala uptake kinetics (Km) in E. coli cells overexpressing the transporter; format: cell-based, Yersinia enterocolitica

Row | Compound | IC50 (YePEPT [1]) | label-free DSF thermal shift at 200-800 μM LZNV (no Kd) (YePEPT [2]) | label-free DSF thermal shift at 200-800 μM LZNV (no Kd) (YePEPT [3]) | Km [4]
1 | CC(C)[C@H](NC(=O)[C@@H](N)CCCCNC(=O)OCc1ccc([N+](=O)[O-])cc1)C(=O)O [LZNV, Lys[Z(NO2)]-Val] | 7.6 µM | YePEPT^K314A-S412A still showed a strong dose-dependent stabilisation by LZNV | This variant shows a concentration-dependent stabilisation by LZNV similar to YePEPT^K314A | –
2 | YePEPT (Yersinia enterocolitica subsp. palearctica YE-P4; K314A) | – | – | – | 57.3 µM
